In assay [1] the target is neuraminidase of A/Brisbane/59/07 (H1N1) (Influenza A virus, UniProt D5F1R0). Nature of the assay: biochemical. It counts as biochemical.
Assay [2] addresses neuraminidase of B/Malaysia/5206/04 (Influenza B virus, UniProt Q38G90). The assay is described as follows: Neuraminidase inhibition, fluorogenic MUNANA substrate, purified intact virions. To be noted: read-out: Inhibition of Neuraminidase, IC50. The class given is biochemical.
Assay [3] concerns the target neuraminidase of A/Uruguay/716/07 (H3N2) (Influenza A virus, UniProt I6VF55). It counts as biochemical. The settings on record: read-out: Inhibition of Neuraminidase, IC50.
Assay [4] concerns the target neuraminidase of A/Solomon Islands/3/06 (H1N1) (Influenza A virus, UniProt B4URD9). It counts as biochemical. To be noted: read-out: Inhibition of Neuraminidase, IC50.
In a further assay the test system is N2 NAs. The settings on record: read-out: inhibition (IC50) of N2 NAs; range over N2 NAs; ref [28]; cited from earlier work.
In a further assay the test system is type B NAs. The settings on record: read-out: inhibition (IC50) of type B NAs; range over type B NAs; ref [28]; cited from earlier work.

Read-outs that look alike come from different tables or passages of the source.

Take `CCC(CC)Cc1cc(C(=O)O)ccc1N1C(=O)CCC1(CO)CO` [Compound 14b, 4-(2,2-Bis (hydroxymethyl)-5-oxopyrrolidin-1-yl)-3-(2-ethylbutyl)benzoic Acid]: in assay [1], the IC50 – broadly, the concentration needed to halve the response being measured – is 1.6 ± 0.6 µM and the “improved N1 NA activity compared to the parent 3” value is given as 30–40 fold.
Consider “4-(2,2-Bis(hydroxymethyl)-3-((3-pentyloxy)methyl)-5-oxopyrrolidin-1-yl)benzoic Acid [Compound 10c]”, for which the IC50 in assay [2] was found to be 30 ± 1.4 µM; in assay [1] (read-out: Inhibition of Neuraminidase, IC50) it was 1 ± 0.21 µM; in assay [3], 0.5 ± 0.1 µM; in assay [4], 0.8 ± 0.07 µM. Further, the “improved N1 NA activity compared to the parent 3” value in assay [1] was 80–100 fold.
In the case of `CC(C)Cc1cc(C(=O)O)ccc1N1C(=O)CCC1(CO)CO` [Compound 13c, 4-(2,2-Bis (hydroxymethyl)-5-oxopyrrolidin-1-yl)-3-isobutylbenzoic Acid], 70 ± 7.8 µM corresponded to half-maximal inhibition in assay [1] (IC50).
For the compound `CCC(=Cc1cc(C(=O)O)ccc1N1C(=O)CCC1(CO)CO)CC` [Compound 13b, 4-(2,2-Bis (hydroxymethyl)-5-oxopyrrolidin-1-yl)-3-(2-ethylbut-1-enyl)benzoic Acid], in assay [1], the IC50 was 2.4 ± 0.9 µM and the “improved N1 NA activity compared to the parent 3” value was 30–40 fold.
As for `CCC(C)OCc1cc(C(=O)O)ccc1N1C(=O)CCC1(CO)CO` (centres unmarked) [Compound 10b, 4-(2,2-Bis(hydroxymethyl)-5-oxopyrrolidin-1-yl)-3-(2-butoxymethyl)benzoic Acid], the IC50 in assay [1] was 16 ± 2.1 µM.
As for `CC(C)OCc1cc(C(=O)O)ccc1N1C(=O)CCC1(CO)CO` [Compound 10a, 4-(2,2-Bis(hydroxymethyl)-5-oxopyrrolidin-1-yl)-3-(isopropoxymethyl)benzoic Acid], in assay [1], the IC50 was over 10000 µM.
Regarding `CCC(CC)O[C@@H]1C=C(C(=O)O)C[C@H](N)[C@H]1NC(C)=O` [Compound 1c, oseltamivir carboxylate], the IC50 is 0.00068 to 0.00178 µM in the assay on N2 NAs and 0.005 to 0.0243 µM in the assay with type B NAs.

The record behind these values is paper PMC3401542 (Bioorganic & medicinal chemistry, 2012).
